Assays:
[1] = biological target: Recombinant Human NF-kappaB-Inducing Kinase (NIK/MAP3K14) (Homo sapiens, UniProt Q99558); assay: Inhibition of auto-phosphorylation of recombinant human NIK/MAP3K14 activity (AlphaScreen); format: biochemical; settings: 5 μM ATP, 1 nM NIK, average if tested more than once
Protocol: Assay 1: Inhibition of Auto-Phosphorylation of Recombinant Human NF-kappaB-Inducing Kinase (NIK/MAP3K14) Activity (AlphaScreen™)
NIK/MAP3K14 auto-phosphorylation activity was measured using the AlphaScreen™ (αscreen) format (Perkin Elmer). All compounds tested were dissolved in dimethyl sulfoxide (DMSO) and further dilutions were made in assay buffer. The final DMSO concentration was 0.7% (v/v) in assays. The assay buffer was 50 mM Tris pH 7.5 containing 1 mM EGTA (ethylene glycol tetraacetic acid), 1 mM DTT (dithiothreitol), 0.1 mM Na3VO4, 5 mM MgCl2, and 0.01% Tween®20. The assays were carried out in 384 well Proxiplates (Perkin Elmer). The incubations consisted of the compound, 5 μM Adenosine-5′-triphosphate (ATP), and 1 nM NIK/MAP3K14. Incubations were initiated by the addition of GST-tagged NIK/MAP3K14 enzyme, carried out for 2 h at 25° C. and terminated by addition of stop buffer containing anti-phospho-IKK Ser176/180 antibody. Protein A Acceptor and Glutathione-Donor beads were added before reading using an EnVision Multilabel Plate Reader (Perkin Elmer). The signal obtained in the wells was normalized using high (full enzyme activity, 0.7% DMSO) and low controls (no enzyme activity, 0.7% DMSO, no ATP). IC50's were determined by fitting a sigmoidal curve to % inhibition of control versus Log10 compound concentration.

[2] = tested on: p-IKKa levels in L363 (NIK translocated multiple myeloma) cells; assay: Effect of compounds on p-IKKa levels in L363 (NIK translocated multiple myeloma) cells (AlphaLISA SureFire Ultra p-IKKa Ser176/180); format: cell-based, human; settings: Homo sapiens, L-363, p-IKKa levels in L363 cells; average if tested more than once; read-out: Assay 2 IC50
Protocol: Assay 2: Effect of Compounds on p-IKKa Levels in L363 (NIK Translocated Multiple Myeloma) Cells
All compounds tested were dissolved and serially diluted in DMSO, 1:3 dilution for 11 points in an Echo compatible plate. 100% DMSO was added to columns 12 and 24 of the plate to serve as high and low signal controls. This compound plate was used to spot 20 nL of compound or DMSO into a Greiner 384 well TC plate (781080). The final DMSO concentration was 0.3% (v/v) in cell assays. Human L363 cells (ATCC) were cultured in RPM11640 medium supplemented with GlutaMax, non-essential amino acids, sodium pyruvate and 10% fetal bovine serum. Cells were routinely maintained at densities of 0.2×10^6 cells per ml-2×10^6 cells per mL at 37° C. in a humidified 5% CO2 atmosphere incubator. Cells were passaged twice a week splitting back to obtain the low density. The day before the assay, cells were washed twice in HBSS (Hank's Balanced Salt Solution), resuspended in Dulbecco's Modified Eagle Medium (DMEM)+0.5% IgG and protease free BSA (Jackson Immuno Research Laboratories), +/−250 ng/ml recombinant human B-cell activating factor (BAFF/BLyS/TNFSF13B) and incubated overnight at 37° C. in a humidified 5% CO2 atmosphere (bulk stimulation with or without BAFF). The next day, the cell concentration was adjusted to 1×10^7 cells/ml in DMEM+/−250 ng/ml BAFF+/−10 μM MG132 and plated at 10 μl/well into compound or DMSO spotted 384 well TC plates. Seeded cells were incubated at 37° C. in a humidified 5% CO2 atmosphere for 6 h. After 6 h, the plates were removed from the incubator and cell lysis was achieved by the addition of 2.5 μl 5× lysis buffer containing protease and phosphatase inhibitors, followed by shaking on a plate shaker at room temperature for 15 min. At the end of this incubation, lysed cells were sequentially treated and incubated with acceptor and donor bead mixes according to the manufacturer's protocol for a 1 plate/2-incubation suspension cell assay (AlphaLISA SureFire Ultra p-IKKa (Ser 176/180) Assay Kit (Perkin Elmer). Plates were read using an EnVision Multilabel Plate Reader (Perkin Elmer). Within an experiment, a concentration response curve for each compound was run in duplicate. The signal obtained in the test wells was normalized using high signal (BAFF stimulated cells, DMSO, MG132) and low signal (unstimulated cells, DMSO) controls. To determine the IC50, a sigmoidal curve was fitted to the plot of % inhibition versus Log10 compound concentration.

Recombinant Human NF-kappaB-Inducing Kinase (NIK/MAP3K14), sequence (Q99558 whole entry): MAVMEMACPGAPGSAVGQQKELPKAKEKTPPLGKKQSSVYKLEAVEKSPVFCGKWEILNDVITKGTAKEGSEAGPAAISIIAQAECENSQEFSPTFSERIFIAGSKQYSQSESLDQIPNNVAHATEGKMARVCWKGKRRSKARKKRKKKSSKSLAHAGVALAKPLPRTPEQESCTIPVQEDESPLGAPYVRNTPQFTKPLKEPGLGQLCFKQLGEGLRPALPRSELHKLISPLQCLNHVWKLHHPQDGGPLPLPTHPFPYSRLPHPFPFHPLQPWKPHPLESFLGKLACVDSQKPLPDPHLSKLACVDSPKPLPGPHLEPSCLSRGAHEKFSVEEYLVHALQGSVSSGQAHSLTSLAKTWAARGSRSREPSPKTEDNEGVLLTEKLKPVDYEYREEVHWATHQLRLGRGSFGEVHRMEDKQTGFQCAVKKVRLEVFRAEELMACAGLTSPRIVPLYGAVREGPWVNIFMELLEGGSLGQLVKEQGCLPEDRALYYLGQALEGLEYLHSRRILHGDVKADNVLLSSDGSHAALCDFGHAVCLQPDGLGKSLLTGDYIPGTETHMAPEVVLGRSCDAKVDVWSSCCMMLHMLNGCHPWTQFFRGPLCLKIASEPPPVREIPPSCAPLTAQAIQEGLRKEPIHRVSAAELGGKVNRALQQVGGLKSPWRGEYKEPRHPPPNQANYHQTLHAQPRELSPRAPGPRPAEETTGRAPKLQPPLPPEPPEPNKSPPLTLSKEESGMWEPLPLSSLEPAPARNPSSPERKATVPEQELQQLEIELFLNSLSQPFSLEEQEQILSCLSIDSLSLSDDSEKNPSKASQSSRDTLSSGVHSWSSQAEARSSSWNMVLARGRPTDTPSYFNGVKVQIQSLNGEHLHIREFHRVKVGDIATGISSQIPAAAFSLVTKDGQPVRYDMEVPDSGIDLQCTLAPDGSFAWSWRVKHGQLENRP

SMILES | IC50 [1] [nM] | IC50 [2] [nM]
CN1CC[C@@](O)(c2cccc(-c3nc(-c4ccnc(Nc5ccnn5C5COC5)n4)cs3)c2)C1=O [Example 160, (R)-3-Hydroxy-1-methyl-3-(3-(4-(2-((1-(oxetan-3-yl)-1H-pyrazol-5-yl)amino)pyrimidin-4-yl)thiazol-2-yl)phenyl)pyrrolidin-2-one] | < 100 | > 501
COCCOc1nn(CC(F)F)cc1Nc1nccc(-c2csc(-c3cccc([C@]4(O)CCN(C)C4=O)c3)n2)n1 [Example 11, (R)-3-(3-(4-(2-((1-(2,2-Difluoroethyl)-3-(2-methoxyethoxy)-1H-pyrazol-4-yl)amino)pyrimidin-4-yl)thiazol-2-yl)phenyl)-3-hydroxy-1-methylpyrrolidin-2-one] | < 100 | < 100
CC(Nc1nccc(-c2csc(-c3cccc([C@]4(O)CCN(C)C4=O)c3)n2)n1)c1ccn(C)n1 (stereo partly drawn) [Example 112, (R)-3-hydroxy-1-methyl-3-(3-(4-(2-(((R,S)-1-(1-methyl-1H-pyrazol-3-yl)ethyl)amino)pyrimidin-4-yl)thiazol-2-yl)phenyl)pyrrolidin-2-one] | < 100 | > 501
COc1nn(CC(F)(F)F)cc1Nc1nccc(-c2csc(-c3cccc([C@]4(O)CCN(C)C4=O)c3)n2)n1 [Example 101, (R)-3-hydroxy-3-(3-(4-(2-((3-methoxy-1-(2,2,2-trifluoroethyl)-1H-pyrazol-4-yl)amino)pyrimidin-4-yl)thiazol-2-yl)phenyl)-1-methylpyrrolidin-2-one] | < 100 | < 100
CN1CC[C@@](O)(c2cccc(-c3nc(-c4ccnc(N[C@H]5CCOC5)n4)cs3)c2)C1=O [Example 250] | < 100 | > 501
C[C@@H](Nc1nccc(-n2ccc(-c3cccc([C@]4(O)CCN(C)C4=O)c3)n2)n1)c1cnn(C)c1 (single isomer, unassigned) [Example 94] | < 100 | > 501
CC(Nc1nccc(-c2csc(-c3cccc([C@]4(O)CCN(C)C4=O)c3)n2)n1)c1ncco1 (stereo partly drawn) [Example 199] | < 100 | > 501
C[C@H](Nc1nccc(-n2ccc(-c3cccc([C@]4(O)CCN(C)C4=O)c3)n2)n1)c1cnn(C)c1 (single isomer, unassigned) [Example 93] | < 100 | 100 to 500
CN1CC[C@@](O)(c2cccc(-c3nc(-c4ccnc(NC5(CO)CCC5)n4)cs3)c2)C1=O [Example 191] | < 100 | > 501
CN1CC[C@@](O)(c2cccc(-c3nc(-c4ccnc(Nc5ccn(CCO)n5)n4)cs3)c2)C1=O [Example 286, (R)-3-hydroxy-3-(3-(4-(2-((1-(2-hydroxyethyl)-1H-pyrazol-3-yl)amino)pyrimidin-4-yl)thiazol-2-yl)phenyl)-1-methylpyrrolidin-2-one] | < 100 | 100 to 500
C[C@@H](Nc1nccc(-c2nc(-c3cccc([C@]4(O)CCN(C)C4=O)c3)cs2)n1)c1ccnn1C (single isomer, unassigned) [Example 127] | < 100 | 100 to 500
CN1CC[C@@](O)(c2cccc(-c3coc(-c4ccnc(Nc5ccn(C)n5)n4)n3)c2)C1=O [Example 4, (R)-3-hydroxy-1-methyl-3-(3-(2-(2-((1-methyl-1H-pyrazol-3-yl)amino)pyrimidin-4-yl)oxazol-4-yl)phenyl)pyrrolidin-2-one] | < 100 | > 501
CN1CC[C@@](O)(c2cccc(-c3nc(-c4ccnc(N[C@@H]5CNC(=O)C5)n4)cs3)c2)C1=O [Example 171] | < 100 | > 501
Cc1nn(C)cc1CNc1nccc(-c2csc(-c3cccc([C@]4(O)CCN(C)C4=O)c3)n2)n1 [Example 210] | < 100 | > 501
Cc1c(Nc2nccc(-c3csc(-c4cccc([C@]5(O)CCN(C)C5=O)c4)n3)n2)ncn1C [Example 178] | > 501 | > 501
CN1C(=O)[C@@](O)(c2cncc(-c3csc(-c4ccnc(Nc5ccn(C)n5)n4)n3)c2)C[C@@H]1C(F)(F)F (single isomer, unassigned) [Example 62] | > 501 | > 501
Cc1cnc(CNc2nccc(-c3csc(-c4cccc([C@]5(O)CCN(C)C5=O)c4)n3)n2)o1 [Example 200] | < 100 | > 501
CN1CC[C@@](O)(c2cccc(-c3nc(-c4ccnc(N[C@H]5C[C@H](O)C5)n4)cs3)c2)C1=O [Example 109, (R)-3-hydroxy-3-(3-(4-(2-(((1R,3R)-3-hydroxycyclobutyl)amino)pyrimidin-4-yl)thiazol-2-yl)phenyl)-1-methylpyrrolidin-2-one] | 100 to 500 | > 501
Cc1cn(CC(F)(F)F)nc1Nc1nccc(-c2csc(-c3cccc([C@]4(O)CCN(C)C4=O)c3)n2)n1 [Example 245] | > 501 | > 501
CN1CC[C@@](O)(c2cccc(-c3nc(-c4ccnc(Nc5nn(C)c6ccccc56)n4)cs3)c2)C1=O [Example 69, (R)-3-hydroxy-1-methyl-3-(3-(4-(2-((1-methyl-1H-indazol-3-yl)amino)pyrimidin-4-yl)thiazol-2-yl)phenyl)pyrrolidin-2-one] | < 100 | > 501
Cc1ccc(CNc2nccc(-c3csc(-c4cccc([C@]5(O)CCN(C)C5=O)c4)n3)n2)cn1 [Example 204] | < 100 | > 501
CN1CC[C@@](O)(c2cccc(-c3nc(-c4ccnc(Nc5cn(CC(F)F)nc5OC5CC5)n4)cs3)c2)C1=O [Example 9, (R)-3-(3-(4-(2-((3-Cyclopropoxy-1-(2,2-difluoroethyl)-1H-pyrazol-4-yl)amino)pyrimidin-4-yl)thiazol-2-yl)phenyl)-3-hydroxy-1-methylpyrrolidin-2-one] | < 100 | < 100
CN1CC[C@@](O)(c2cccc(-c3nc(-c4ccnc(NC5CCN(S(C)(=O)=O)CC5)n4)cs3)c2)C1=O [Example 47, (R)-3-Hydroxy-1-methyl-3-(3-(4-(2-((1-(methylsulfonyl)piperidin-4-yl)amino)pyrimidin-4-yl)thiazol-2-yl)phenyl)pyrrolidin-2-one] | < 100 | > 501
Cc1cc(Nc2nccc(-c3csc(-c4cccc([C@]5(O)CCN(C)C5=O)c4)n3)n2)ncn1 [Example 106, (R)-3-hydroxy-1-methyl-3-(3-(4-(2-((6-methylpyrimidin-4-yl)amino)pyrimidin-4-yl)thiazol-2-yl)phenyl)pyrrolidin-2-one] | < 100 | > 501
CN(C)C(=O)Cn1ccc(Nc2nccc(-c3csc(-c4cccc([C@]5(O)CCN(C)C5=O)c4)n3)n2)n1 [Example 262, (R)-2-(3-((4-(2-(3-(3-Hydroxy-1-methyl-2-oxopyrrolidin-3-yl)phenyl)thiazol-4-yl)pyrimidin-2-yl)amino)-1H-pyrazol-1-y)-N,N-dimethylacetamide] | < 100 | > 501
CN1CC[C@@](O)(c2cccc(-c3nc(-c4ccnc(NC5COC5)n4)cs3)c2)C1=O [Example 230] | < 100 | 100 to 500
CN1CC[C@@](O)(c2cccc(-c3nc(-c4ccnc(Nc5cccnc5C(F)(F)F)n4)cs3)c2)C1=O [Example 166, (R)-3-Hydroxy-1-methyl-3-(3-(4-(2-((2-(trifluoromethyl)pyridin-3-yl)amino)pyrimidin-4-yl)thiazol-2-yl)phenyl)pyrrolidin-2-one] | < 100 | > 501

From US20250304567A1, “PYRROLIDIONE DERIVATIVES AS INHIBITORS OF NF KAPPA B INDUCING KINASE” (priority 2022, published 2025)
